Measurements from ChEMBL document CHEMBL1140031, “Cyclic voltammetric analysis of 2-styrylchromones: relationship with the antioxidant activity” (Bioorg Med Chem, 2008).

Experiments:
Assay type in all cases: functional
[1] = Antioxidant activity assessed as superoxide radical scavenging activity
[2] = Antioxidant activity assessed as hypochlorous acid scavenging activity
[3] = Antioxidant activity assessed as singlet oxygen scavenging activity
[4] = Antioxidant activity assessed as peroxynitrite radical scavenging activity in absence of NaHCO3
[5] = Antioxidant activity assessed as H2O2 scavenging activity at 125 uM
[6] = Antioxidant activity assessed as peroxynitrite radical scavenging activity in presence of NaHCO3

Compound | IC27 [1] [µM] | IC50 [2] [µM] | IC30 [3] [µM] | IC50 [4] [µM] | Activity [5] [%] | IC50 [6] [µM]
O=c1cc(/C=C/c2ccccc2)oc2cc(O)ccc12 | 55.9 | 72.3 |  |  |  | 
O=c1cc(/C=C/c2ccc(O)c(O)c2)oc2cc(O)ccc12 | 18.9 | 18 | 3.7 | 0.3 | 50.8 | 0.61
O=c1cc(/C=C/c2ccccc2)oc2cc(O)cc(O)c12 | 125 | 5.7 | 81.3 | 46.6 |  | 40.6
O=c1cc(/C=C/c2ccc(O)cc2)oc2ccccc12 | 56 |  | 105 | 1.2 |  | 1.23
O=c1cc(/C=C/c2ccc(O)c(O)c2)oc2ccccc12 | 42.4 | 31.2 | 2.7 | 0.24 | 44.1 | 0.44
O=c1cc(/C=C/c2ccc(O)cc2)oc2cc(O)ccc12 | 17.7 | 92 | 93.4 | 1.4 |  | 1.65
O=c1cc(/C=C/c2ccc(O)c(O)c2)oc2cc(O)cc(O)c12 | 28.8 | 3.9 | 2.3 | 0.26 | 66.7 | 0.63
O=c1cc(/C=C/c2ccc(O)cc2)oc2cccc(O)c12 |  |  | 40 | 1.04 | 16.9 | 0.98
O=c1cc(/C=C/c2ccc(O)c(O)c2)oc2cccc(O)c12 | 46.6 | 16.9 | 1.9 | 0.26 | 50.8 | 0.51
O=c1cc(/C=C/c2ccc(O)cc2)oc2cc(O)cc(O)c12 |  | 8.5 | 72.3 | 1.25 | 10.6 | 1.21
